Consider twelve compounds from PubChem BioAssay (NCI).

Some test systems named below: SK-MEL-2 melanoma; MALME-3M melanoma; NCI-H226 lung; SNB-75 CNS; SF-539 CNS; RXF 393 renal; 786-0 renal; MOLT-4 leukemia; SR leukemia.
Assay in all cases: DTP human tumour cell line panel, 48 h

The structures appear in SMILES notation. Values joined by “and” are separate entries in the source; they are usually repeats but may differ in a detail not shown here. Equal values may be shown once.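 Briefly, cells in 96-well plates were exposed to five compound concentrations for 48 h, and endpoints were estimated by linear interpolation. GI50 marks 50% less growth. TGI: concentration producing complete growth inhibition.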

For `O=c1c2[nH]c3ccccc3c2nc2n1CCS2`, the GI50 (in general, the concentration at which growth is held to half of that of the control) is greater than 100000 nM in the assay on SK-MEL-2 melanoma; 69.9 µM in the assay with MALME-3M melanoma; greater than 100000 nM in the assay on NCI-H226 lung; 15.8 µM with SNB-75 CNS; 85 µM in the assay on SF-539 CNS; greater than 100000 nM in the assay on RXF 393 renal. In addition, in the assay with 786-0 renal, the GI50 was greater than 100000 nM. Besides, the TGI (as a rule, the concentration at which net growth stops) in the assay with SK-MEL-2 melanoma is greater than 100 µM; in the assay on MALME-3M melanoma, greater than 100 µM; with NCI-H226 lung, greater than 100 µM; with SNB-75 CNS, 77.3 µM; in the assay with SF-539 CNS, greater than 100 µM; with RXF 393 renal it was greater than 100 µM. Besides, the TGI in the assay with 786-0 renal was greater than 100 µM.
Regarding `COc1ccc(OC)c(/C=C/C(=O)C(C)(C)C)c1`, the TGI with MALME-3M melanoma was determined as 45.3 µM; with NCI-H226 lung, 35.4 µM; with SNB-75 CNS it was 56.8 µM; in the assay with SF-539 CNS, 38.4 µM; in the assay on RXF 393 renal it was 34.3 µM; with 786-0 renal, 36.9 µM. The compound also registered a TGI with MOLT-4 leukemia of 55.1 µM.
Consider `O=c1c2cc(Br)ccc2nc(-c2ccccc2)n1NCC1(O)OCC(O)C(O)C1O` (stereo unspecified), for which the TGI in the assay with SK-MEL-2 melanoma, in the assay on MALME-3M melanoma, in the assay on NCI-H226 lung, with SNB-75 CNS, in the assay on SF-539 CNS and in the assay on RXF 393 renal was greater than 100 µM in each case. Also, the TGI in the assay with SR leukemia, in the assay with 786-0 renal and with MOLT-4 leukemia was greater than 100 µM each time.
For the compound `CSc1c(S(C)=O)[nH]c2cc(Br)cc(Br)c12` (stereo unspecified), the TGI with MALME-3M melanoma is 48.8 µM; in the assay on NCI-H226 lung, 67.9 µM; in the assay on SNB-75 CNS, 50.9 µM; with SF-539 CNS it was 47.5 µM; with RXF 393 renal, 33.6 µM; in the assay with 786-0 renal, 31.9 µM. In addition, in the assay with MOLT-4 leukemia, the TGI is 61.5 µM.
For the compound `Cc1cc2c(=O)cc(-c3ccc(C(F)(F)F)cc3)oc2c(C(=O)O)c1C`, the TGI with SK-MEL-2 melanoma, in the assay with MALME-3M melanoma, in the assay with NCI-H226 lung, in the assay on SNB-75 CNS, with SF-539 CNS and with RXF 393 renal was greater than 100 µM in each case. The TGI in the assay on 786-0 renal and in the assay with MOLT-4 leukemia was greater than 100 µM in each case.
Turning to `Fc1c[c-]c(-c2ccccn2)c(F)c1.[CH3-].[Pt+2].c1ccc([PH+](c2ccccc2)c2ccccn2)cc1`, the GI50 in the assay on SK-MEL-2 melanoma was 2220 nM; with MALME-3M melanoma it was 1.35 µM; in the assay with NCI-H226 lung, 1730 nM; in the assay with SNB-75 CNS, 1.03 µM; in the assay with SF-539 CNS, 1.58 µM; in the assay with RXF 393 renal, 1320 nM. For the same compound, the figures for the GI50 in the assay with SR leukemia, in the assay on 786-0 renal and in the assay with MOLT-4 leukemia were 786 nM, 1930 nM and 1040 nM, respectively. Moreover, the TGI worked out at 5.86 µM with SK-MEL-2 melanoma; 2.81 µM with MALME-3M melanoma; 3.8 µM in the assay on NCI-H226 lung; 9.9 µM with SNB-75 CNS; 3.07 µM with SF-539 CNS; 2.76 µM in the assay on RXF 393 renal. Further, the TGI in the assay with SR leukemia was 7.05 µM; in the assay with 786-0 renal it was 4.03 µM; with MOLT-4 leukemia, greater than 100 µM.
Take `COc1cc(OC)cc(-c2ccc(-c3ccc(C(=N)N)s3)s2)c1`: the GI50 with SK-MEL-2 melanoma is 1620 nM; in the assay on MALME-3M melanoma, 1.25 µM; with NCI-H226 lung, 1610 nM; with SNB-75 CNS, 1.22 µM; in the assay with SF-539 CNS, 1.24 µM; with RXF 393 renal, 1250 nM. In addition, the concentration for 50% growth inhibition (GI50) with SR leukemia is 331 nM and 244 nM; with 786-0 renal it was 1230 nM; in the assay with MOLT-4 leukemia, 396 nM and 230 nM. Also, the TGI in the assay with SK-MEL-2 melanoma amounted to 3.14 µM; in the assay on MALME-3M melanoma, 3.28 µM; with NCI-H226 lung it was 3.71 µM; with SNB-75 CNS, 2.5 µM; in the assay with SF-539 CNS, 3.45 µM; in the assay with RXF 393 renal it was 2.99 µM. The TGI in the assay with SR leukemia was 0.918 µM and 0.598 µM; with 786-0 renal it was 3.06 µM; in the assay with MOLT-4 leukemia it was 1.12 µM and 0.486 µM.
As for `CC(C)[C@H]1CO[C@@H]2O[C@H](C)CC(=O)N21`, the TGI with SK-MEL-2 melanoma, with MALME-3M melanoma, in the assay with NCI-H226 lung, in the assay on SNB-75 CNS, in the assay with SF-539 CNS and in the assay with RXF 393 renal was greater than 100 µM each time. Also, the TGI in the assay with SR leukemia, with 786-0 renal and in the assay on MOLT-4 leukemia was greater than 100 µM each time.
In the case of `C=CC1(c2ccccc2Cl)N/C(=C/OCC)CO1` (stereo unspecified), the TGI in the assay with SK-MEL-2 melanoma, with MALME-3M melanoma, in the assay with NCI-H226 lung, in the assay on SNB-75 CNS, in the assay on SF-539 CNS and in the assay on RXF 393 renal was greater than 100 µM throughout. The TGI in the assay with SR leukemia, with 786-0 renal and in the assay on MOLT-4 leukemia was greater than 100 µM in each case.
In the case of `O=[N+]([O-])c1cccc(/C=C/c2ccccn2)c1`, the GI50 in the assay on MALME-3M melanoma is 37.5 µM; in the assay on NCI-H226 lung, 33500 nM; in the assay on SNB-75 CNS it was 5.47 µM; with SF-539 CNS, 26.6 µM; in the assay with RXF 393 renal, 8600 nM; with SR leukemia, 51600 nM. The figures for the GI50 in the assay with 786-0 renal and in the assay on MOLT-4 leukemia were 36700 nM and greater than 100000 nM, respectively. Also, the TGI was greater than 100 µM in the assay on MALME-3M melanoma; greater than 100 µM in the assay on NCI-H226 lung; 75.4 µM with SNB-75 CNS; greater than 100 µM in the assay on SF-539 CNS; greater than 100 µM with RXF 393 renal; greater than 100 µM in the assay on SR leukemia. The TGI in the assay on 786-0 renal and with MOLT-4 leukemia was greater than 100 µM throughout.
As for `NC(=S)N/N=C1\C(=O)N(CCc2ccccc2)C(=O)C1C(=O)NCCc1ccccc1` (stereo unspecified), the TGI in the assay on SK-MEL-2 melanoma, with MALME-3M melanoma, with NCI-H226 lung, in the assay with SNB-75 CNS, in the assay with SF-539 CNS and in the assay on RXF 393 renal was greater than 100 µM in each case. The TGI with 786-0 renal is greater than 100 µM.
As to `Cc1ccc(/C=N/NS(=O)(=O)c2ccccc2)cc1`, the TGI with SK-MEL-2 melanoma, with MALME-3M melanoma, in the assay on NCI-H226 lung, with SNB-75 CNS, with SF-539 CNS and in the assay on RXF 393 renal was greater than 100 µM throughout. Besides, the TGI in the assay with SR leukemia, in the assay with 786-0 renal and in the assay with MOLT-4 leukemia was greater than 100 µM throughout.
